Source: the NIST ThermoML archive (doi:10.1021/je060271a)
± gives the expanded uncertainty stated by the source.

Conditions: Liquid, Vibrating tube method

CCCCCC(=O)OCC(COC(=O)CCCCC)(COC(=O)CCCCC)COC(=O)CCCCC [pentaerythritol tetrahexanoate]
mass density (303.17 K, 1567.2 kPa): 989.3 ± 1.2 kg/m3 | mass density (303.17 K, 1583.5 kPa): 989.4 ± 1.2 kg/m3 | mass density (303.17 K, 1597.3 kPa): 989.4 ± 1.2 kg/m3 | mass density (303.17 K, 1611.3 kPa): 989.4 ± 1.2 kg/m3 | mass density (303.17 K, 1628.3 kPa): 989.5 ± 1.2 kg/m3 | mass density (303.17 K, 5535.7 kPa): 992 ± 1.2 kg/m3 | mass density (303.17 K, 5553.1 kPa): 991.9 ± 1.2 kg/m3 | mass density (303.17 K, 5573.9 kPa): 992 ± 1.2 kg/m3 | mass density (303.17 K, 17353 kPa): 999.2 ± 1.2 kg/m3 | mass density (303.17 K, 32996 kPa): 1008 ± 1.2 kg/m3 | mass density (303.17 K, 33019 kPa): 1007.9 ± 1.2 kg/m3 | mass density (303.17 K, 33039 kPa): 1007.9 ± 1.2 kg/m3 | mass density (303.17 K, 33058 kPa): 1008 ± 1.2 kg/m3 | mass density (303.17 K, 33082 kPa): 1008.1 ± 1.2 kg/m3 | mass density (303.17 K, 33102 kPa): 1007.9 ± 1.2 kg/m3 | mass density (303.17 K, 33125 kPa): 1008 ± 1.2 kg/m3 | mass density (303.17 K, 33145 kPa): 1008 ± 1.2 kg/m3 | mass density (303.17 K, 33165 kPa): 1007.9 ± 1.2 kg/m3 | mass density (323.14 K, 384.5 kPa): 973 ± 1.2 kg/m3 | mass density (323.14 K, 386.4 kPa): 972.9 ± 1.2 kg/m3 | mass density (323.14 K, 388.7 kPa): 972.8 ± 1.2 kg/m3 | mass density (323.14 K, 391.1 kPa): 972.8 ± 1.2 kg/m3 | mass density (323.14 K, 393.7 kPa): 972.9 ± 1.2 kg/m3 | mass density (323.14 K, 396.7 kPa): 972.9 ± 1.2 kg/m3 | mass density (323.14 K, 398.7 kPa): 973 ± 1.2 kg/m3 | mass density (323.14 K, 401.3 kPa): 973 ± 1.2 kg/m3 | mass density (323.14 K, 403.6 kPa): 972.9 ± 1.2 kg/m3 | mass density (323.14 K, 406.6 kPa): 972.9 ± 1.2 kg/m3 | mass density (323.14 K, 408.8 kPa): 972.9 ± 1.2 kg/m3 | mass density (323.14 K, 411.4 kPa): 973 ± 1.2 kg/m3 | mass density (323.14 K, 414.9 kPa): 972.9 ± 1.2 kg/m3 | mass density (323.14 K, 417.5 kPa): 972.8 ± 1.2 kg/m3 | mass density (323.14 K, 420.5 kPa): 972.9 ± 1.2 kg/m3 | mass density (323.14 K, 423.2 kPa): 973 ± 1.2 kg/m3 | mass density (323.14 K, 426 kPa): 972.9 ± 1.2 kg/m3 | mass density (323.14 K, 429.2 kPa): 972.9 ± 1.2 kg/m3 | mass density (323.14 K, 431.6 kPa): 972.9 ± 1.2 kg/m3 | mass density (323.14 K, 434.7 kPa): 973.1 ± 1.2 kg/m3 | mass density (323.14 K, 438 kPa): 972.9 ± 1.2 kg/m3 | mass density (323.14 K, 440.8 kPa): 972.9 ± 1.2 kg/m3 | mass density (323.14 K, 477.3 kPa): 972.9 ± 1.2 kg/m3 | mass density (323.14 K, 481.1 kPa): 973 ± 1.2 kg/m3 | mass density (323.14 K, 484.4 kPa): 972.9 ± 1.2 kg/m3 | mass density (323.14 K, 488.9 kPa): 972.9 ± 1.2 kg/m3 | mass density (323.14 K, 492.6 kPa): 973 ± 1.2 kg/m3 | mass density (323.14 K, 495.7 kPa): 973 ± 1.2 kg/m3 | mass density (323.14 K, 499.5 kPa): 973 ± 1.2 kg/m3 | mass density (323.14 K, 503.9 kPa): 973 ± 1.2 kg/m3 | mass density (323.14 K, 507.5 kPa): 973.1 ± 1.2 kg/m3 | mass density (323.14 K, 512.4 kPa): 973.1 ± 1.2 kg/m3 | mass density (323.14 K, 516.2 kPa): 973 ± 1.2 kg/m3 | mass density (323.14 K, 645.8 kPa): 973.2 ± 1.2 kg/m3 | mass density (323.14 K, 648.1 kPa): 973.1 ± 1.2 kg/m3 | mass density (323.14 K, 650 kPa): 973 ± 1.2 kg/m3 | mass density (323.14 K, 652.6 kPa): 973.1 ± 1.2 kg/m3 | mass density (323.14 K, 654.5 kPa): 973.1 ± 1.2 kg/m3 | mass density (323.14 K, 657.1 kPa): 972.9 ± 1.2 kg/m3 | mass density (323.14 K, 686.8 kPa): 973.3 ± 1.2 kg/m3 | mass density (323.14 K, 689.8 kPa): 973 ± 1.2 kg/m3 | mass density (323.14 K, 692.2 kPa): 973.1 ± 1.2 kg/m3 | mass density (323.14 K, 694.8 kPa): 973.3 ± 1.2 kg/m3 | mass density (323.14 K, 697.1 kPa): 973.2 ± 1.2 kg/m3 | mass density (323.14 K, 763.3 kPa): 973.2 ± 1.2 kg/m3 | mass density (323.14 K, 801.5 kPa): 973.1 ± 1.2 kg/m3 | mass density (323.14 K, 803.8 kPa): 973.2 ± 1.2 kg/m3 | mass density (323.14 K, 807.1 kPa): 973.2 ± 1.2 kg/m3 | mass density (323.14 K, 809.5 kPa): 973.2 ± 1.2 kg/m3 | mass density (323.14 K, 812.1 kPa): 973.3 ± 1.2 kg/m3 | mass density (323.14 K, 858.7 kPa): 973.2 ± 1.2 kg/m3 | mass density (323.14 K, 862.3 kPa): 973.3 ± 1.2 kg/m3 | mass density (323.14 K, 865.1 kPa): 973.2 ± 1.2 kg/m3 | mass density (323.14 K, 867.7 kPa): 973.2 ± 1.2 kg/m3 | mass density (323.14 K, 916.7 kPa): 973.3 ± 1.2 kg/m3 | mass density (323.14 K, 923.3 kPa): 973.2 ± 1.2 kg/m3 | mass density (323.14 K, 1440.1 kPa): 973.7 ± 1.2 kg/m3 | mass density (323.14 K, 1446.1 kPa): 973.7 ± 1.2 kg/m3 | mass density (323.14 K, 1451.7 kPa): 973.5 ± 1.2 kg/m3 | mass density (323.14 K, 1458.6 kPa): 973.7 ± 1.2 kg/m3 | mass density (323.14 K, 1465.1 kPa): 973.6 ± 1.2 kg/m3 | mass density (323.14 K, 1499.4 kPa): 973.7 ± 1.2 kg/m3 | mass density (323.14 K, 2143.7 kPa): 974.1 ± 1.2 kg/m3 | mass density (323.14 K, 2154.2 kPa): 974.2 ± 1.2 kg/m3 | mass density (323.14 K, 2163.4 kPa): 974.2 ± 1.2 kg/m3 | mass density (323.14 K, 2899 kPa): 974.7 ± 1.2 kg/m3 | mass density (323.14 K, 2935.4 kPa): 974.6 ± 1.2 kg/m3 | mass density (323.14 K, 2971.1 kPa): 974.8 ± 1.2 kg/m3 | mass density (323.14 K, 2984.1 kPa): 974.9 ± 1.2 kg/m3 | mass density (323.14 K, 2995.2 kPa): 974.8 ± 1.2 kg/m3 | mass density (323.14 K, 3008.5 kPa): 974.8 ± 1.2 kg/m3 | mass density (323.14 K, 3019.8 kPa): 974.7 ± 1.2 kg/m3 | mass density (323.14 K, 3032.8 kPa): 974.8 ± 1.2 kg/m3 | mass density (323.14 K, 3043.7 kPa): 974.8 ± 1.2 kg/m3 | mass density (323.14 K, 3057.4 kPa): 974.8 ± 1.2 kg/m3 | mass density (323.14 K, 3071.1 kPa): 974.7 ± 1.2 kg/m3 | mass density (323.14 K, 3082.4 kPa): 974.9 ± 1.2 kg/m3 | mass density (323.14 K, 3093.6 kPa): 974.9 ± 1.2 kg/m3 | mass density (323.14 K, 3107.5 kPa): 974.7 ± 1.2 kg/m3 | mass density (323.14 K, 3120.8 kPa): 974.9 ± 1.2 kg/m3 | mass density (323.14 K, 3132.5 kPa): 975 ± 1.2 kg/m3 | mass density (323.14 K, 3143.7 kPa): 975 ± 1.2 kg/m3 | mass density (323.14 K, 3157.8 kPa): 974.8 ± 1.2 kg/m3 | mass density (323.14 K, 3169 kPa): 974.9 ± 1.2 kg/m3 | mass density (323.14 K, 3182.6 kPa): 974.9 ± 1.2 kg/m3 | mass density (323.14 K, 3194.3 kPa): 974.9 ± 1.2 kg/m3 | mass density (323.14 K, 3207.9 kPa): 974.9 ± 1.2 kg/m3 | mass density (323.14 K, 3219.3 kPa): 975.1 ± 1.2 kg/m3 | mass density (323.14 K, 3233.3 kPa): 974.9 ± 1.2 kg/m3 | mass density (323.14 K, 3245.1 kPa): 974.9 ± 1.2 kg/m3 | mass density (323.14 K, 3259.7 kPa): 974.9 ± 1.2 kg/m3 | mass density (323.14 K, 3271.8 kPa): 975 ± 1.2 kg/m3 | mass density (323.14 K, 3285.5 kPa): 975 ± 1.2 kg/m3 | mass density (323.14 K, 3298 kPa): 974.9 ± 1.2 kg/m3 | mass density (323.14 K, 3312.4 kPa): 975 ± 1.2 kg/m3 | mass density (323.14 K, 3324.7 kPa): 975.1 ± 1.2 kg/m3 | mass density (323.14 K, 3339.9 kPa): 975.1 ± 1.2 kg/m3 | mass density (323.14 K, 3353.1 kPa): 975 ± 1.2 kg/m3 | mass density (323.14 K, 3384.1 kPa): 975 ± 1.2 kg/m3 | mass density (323.14 K, 3463.3 kPa): 975.1 ± 1.2 kg/m3 | mass density (323.14 K, 3495.4 kPa): 975.1 ± 1.2 kg/m3 | mass density (323.14 K, 4052.6 kPa): 975.6 ± 1.2 kg/m3 | mass density (323.14 K, 4071.6 kPa): 975.6 ± 1.2 kg/m3 | mass density (323.14 K, 4087 kPa): 975.6 ± 1.2 kg/m3 | mass density (323.14 K, 4103.5 kPa): 975.6 ± 1.2 kg/m3 | mass density (323.14 K, 4122.2 kPa): 975.5 ± 1.2 kg/m3 | mass density (323.14 K, 4176.9 kPa): 975.4 ± 1.2 kg/m3 | mass density (323.14 K, 4193.2 kPa): 975.6 ± 1.2 kg/m3 | mass density (323.14 K, 4530.6 kPa): 975.9 ± 1.2 kg/m3 | mass density (323.14 K, 4548.8 kPa): 975.8 ± 1.2 kg/m3 | mass density (323.14 K, 4570.3 kPa): 975.9 ± 1.2 kg/m3 | mass density (323.14 K, 4588.6 kPa): 975.9 ± 1.2 kg/m3 | mass density (323.14 K, 4610.6 kPa): 976 ± 1.2 kg/m3 | mass density (323.14 K, 4632.6 kPa): 975.9 ± 1.2 kg/m3 | mass density (323.14 K, 4650.7 kPa): 976 ± 1.2 kg/m3 | mass density (323.14 K, 4669.3 kPa): 975.9 ± 1.2 kg/m3 | mass density (323.14 K, 4691.8 kPa): 975.9 ± 1.2 kg/m3 | mass density (323.14 K, 4714.6 kPa): 975.9 ± 1.2 kg/m3 | mass density (323.14 K, 4733.6 kPa): 976 ± 1.2 kg/m3 | mass density (323.14 K, 4753.2 kPa): 975.9 ± 1.2 kg/m3 | mass density (323.14 K, 4776.2 kPa): 975.9 ± 1.2 kg/m3 | mass density (323.14 K, 4795.8 kPa): 976.1 ± 1.2 kg/m3 | mass density (323.14 K, 4819.1 kPa): 975.9 ± 1.2 kg/m3 | mass density (323.14 K, 4838.9 kPa): 976.1 ± 1.2 kg/m3 | mass density (323.14 K, 4862.6 kPa): 976.2 ± 1.2 kg/m3 | mass density (323.14 K, 4886.4 kPa): 976.1 ± 1.2 kg/m3
